Assay results reported in patent publication US20060014726A1, “Derivatives of cyclic1, 3- propanediol phosphate and their action in differentiation therapy” (priority 2002, published 2006).

What was measured:
[1] = system: estrogen receptor-α (ER-α) in MCF-7 cells; assay: Western blot analysis of ER-α level in MCF-7 cells; assay type: cell-based, human; details: MCF-7 cells; for increase in the level of wild type ER-α receptor (MW 70,000): 1-100 μM 1,3cPP
Description: Turning to FIG. 1 there are shown Western blot analyses showing the effect of 1,3cPP on the expression level of ER-α. In the ER-α assay, MCF-7 cells were incubated with 1-100 μM 1,3cPP for up to 14 days. The analysis indicates a relative increase in the level of wild type ER-α receptor (MW 70,000) with either an increase in 1,3cPP concentration or time of incubation. On days 6 and 14, a nearly 2-fold and 3-fold increase were observed, respectively (FIGS. 1A, C, D, F). […] This band could be related to one of deleted exons D3-4 (MW 49,000), D4 (MW 54,000), or D7 (MW 51,000) ER-α variants.
(§1) Breast Cancer Cells. The human breast cancer MCF-7 cell line were obtained from Prof. Hadassa Degani, of Weizmann Institute of Science, Rehovot, Israel. The cells were grown as monolayers in high glucose DMEM supplemented with 6% fetal calf serum and combined antibiotics. Human breast cancer T47D cells, clones 8 (ER^loPR^lo) and 11 (ER^+PR^+) were obtained from Prof Iafa Keydar, Tel-Aviv university and were grown in DMEM supplemented with 10% fetakl calf serum antibiotics. K562 erythroleukemia cells were obtained from Dr. Alfa Peled of Weizmann Institute of Science, Rehovot, Israel. These cells were grown in RPMI 1640 containing 10% fetal calf serum and antibiotics. All lines were grown at 37° C. in the presence of 5% CO2. The absence of Mycoplasma contamination was monitored by a Mycotrim TC test (Irvine Scientific, Santa Ana, Calif.) carried out once every 3 months.
For ER-α protein analysis, MCF-7 and T47D cells were cultured in 60×15 mm petri dishes. From the second day of culture onward, the cells were treated with various concentrations of 1,3cPP for up to 14 days. At the end of the incubation period, the medium was aspirated and the cells were washed 3 times with cold (4° C.) PBS. The cells were then gently scraped off using a rubber policeman in 0.25 ml of lysis buffer composed of 50 mM β-glycerophosphate, 1 mM DTT, 1.5 mM EGTA, 1 mM EDTA, 1% (Octylphenoxy)polyethoxyethanol (IGEPAL, Sigma, St. Louis, Mo.), a nonionic detergent, and a cocktail of protease inhibitors, including 1 mM phenylmethylsulfonyl fluoride (PMSF), 1 mM benzamidine, 10 μg/ml aprotinin, 10 μg/ml leupeptin, and 2 μg/ml pepstanin, as well as 1 mM sodium orthovanadate (Sigma, St. Louis, Mo.) as a phosphatase inhibitor. […] The protein concentration in each sample (1.5-4 mg/ml) was determined using the Coomassie Protein Assay (Pierce, Rockford, Ill.) according to the manufacturer's instructions. […] Bound antibodies were detected by horseradish peroxidase-conjugated goat anti-rabbit IgG, (Transduction Laboratories, Lexington, Ky. using the ECL detection method. Band densities were quantified by densitometry (Biorad model GS-690 Imaging densitometer) using Molecular Analyst software.

[2] = system: progesterone receptor (PR) in MCF-7 cells; assay: Western blot analysis of PR level in MCF-7 cells; assay type: cell-based, human; details: MCF-7 cells, from 10 μM upwards
Description: In an analogous manner, a set of experiments was preformed with MCF-7 cells for determining the level of PR upon incubation with varying concentrations of 1,3-cPP for a period of up to 11 days. Similar to the augmentation observed for ER-α, an increase of up to 2.8 and 2.2 fold expression of the wild type PR (MW 98,000), was observed from 10 μM 1,3-cPP and upwards on days 8 and 11, respecively (FIGS. 3A-D).
as §1
For ER-α protein analysis, MCF-7 and T47D cells were cultured in 60×15 mm petri dishes. From the second day of culture onward, the cells were treated with various concentrations of 1,3cPP for up to 14 days. At the end of the incubation period, the medium was aspirated and the cells were washed 3 times with cold (4° C.) PBS. […] The protein concentration in each sample (1.5-4 mg/ml) was determined using the Coomassie Protein Assay (Pierce, Rockford, Ill.) according to the manufacturer's instructions. […] Bound antibodies were detected by horseradish peroxidase-conjugated goat anti-rabbit IgG, (Transduction Laboratories, Lexington, Ky. using the ECL detection method. Band densities were quantified by densitometry (Biorad model GS-690 Imaging densitometer) using Molecular Analyst software.

## O=P1(O)OCCCO1 [1,3-cPP, 1,3-cyclic propanediol phosphate]
[1]; day 6, Western blot densitometry
  increase in the level of wild type ER-α receptor (MW 70,000): ~2 fold
[1]; day 14, Western blot densitometry
  increase in the level of wild type ER-α receptor (MW 70,000): ~3 fold
[1]; day 11, Western blot
  increase in the intensity of a ER variant with an approximate MW of 50,000: 5 fold
[2]; day 8
  increase in expression of the wild type PR (MW 98,000): up to 2.8 fold
[2]; day 11
  increase in expression of the wild type PR (MW 98,000): ≤ 2.2 fold
